In one series the test system is Rats. Nature of the series: Rat model for myocardial infarct (permanent coronary occlusion). The series is classed as in vivo. The note with it: intravenous bolus immediately prior to surgery, 48 hr recovery. On the procedure: Rats were subjected to permanent regional cardiac ischemia by surgical occlusion of the left coronary artery. […] Sham-operated rats were subjected to surgery but the suture was not tied on the coronary artery. After a 48 hr recovery period, cardiac functional parameters were measured with a Millar transducing catheter implanted into the left ventricle.

A short description of series [1]: Catalase activity, conversion of H2O2 to oxygen, polarographic oxygen electrode (Example 2). The series is classed as biochemical. Put shortly: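 Clark-type oxygen electrode at 25 °C in 50 mM sodium phosphate pH 8.1, 0.9% NaCl, with 10 μM salen-manganese complex and 10 mM H2O2. Initial rates from slope of first ~5 s, corrected for H2O2-alone rate; endpoint O2 as maximal minus pre-substrate baseline.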

The nature of series [2]: Peroxidase activity with t-BHP as substrate, ABTS oxidation. The series is classed as biochemical. On the procedure:
Peroxidase activity was assayed by monitoring the hydrogen peroxide-dependent oxidation of 2,2′-azino-bis(3-ethylbenzthiazoline-6) sulfonic acid (ABTS) spectrophotometrically. Standard assay mixtures consisted of 50 mM sodium phosphate, pH 8.1, 0.9% sodium chloride, 0.5 mM ABTS, and H2O2 and salen manganese complex as indicated. Where indicated, 50 mM sodium phosphate buffers of pH 6.0 or pH 7.1 were substituted. Assays were conducted at 27±0.2° C. ABTS oxidation was monitored at 740 or 500 nm to eliminate interference by the salen manganese complexes, many of which absorb in the vicinity of the λmax of oxidized ABTS, and to avoid absorbance values that exceeded the linear range of the spectrophotometer. The amount of oxidized ABTS was estimated using an Δε740 of 20,300 M^−1cm^−1 or an Δε500 of 3400 M^−1cm^−1 calculated based upon the published molar extinction coefficient oat 405 nm (36,800).
(In comparison, horseradish peroxidase utilized t-BHP with an ABTS oxidation rate that was about 5.4% of the rate with H2O2).

Series [3] in a line: Peroxidase activity, H2O2-dependent oxidation of ABTS (Example 2). The series is classed as biochemical. The note with it: for Peroxidase rate: 10 μM salen manganese complex, 0.2 mM H2O2; for Peroxidase: relative to C7 (C7 = 100). Put shortly:
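ABTS oxidation by salen manganese complex (10 μM) with 0.2 mM H2O2 in 50 mM sodium phosphate pH 8.1 (or pH 6.0/7.1 where indicated), 0.9% NaCl, 0.5 mM ABTS, 27±0.2 °C. Oxidized ABTS read spectrophotometrically at 740 or 500 nm and quantified from Δε740 20,300 or Δε500 3400 M^−1cm^−1.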

Another series concerns dopaminergic neurons. Nature of the series: MPTP mouse model of Parkinson's disease (mazindol binding). The series is classed as in vivo. On the procedure:
Neuronal damage was induced in mice by injection with MPTP as described in Example 1. Where indicated, mice were also treated with intraperitoneal injections of C40 at 0.02 or 0.2 mg/kg. The integrity of the nigrostriatal dopaminergic neurons was assessed based upon ^3H-Mazindol binding to striatal membranes harvested from the brains of these mice about 1 week after MPTP administration.
The experiment was performed over a 7 day period. […] The animals were sacrificed after 7 days.

The test system of the next series is pigs. The experiment in a line: Acute lung injury in endotoxemic pigs. The series is classed as in vivo, pig. On the procedure:
All pigs were pre-treated at T=−18 h with Escherichia coli 0111:B4 LPS (20 μg/kg). Pigs in the RL group (n=4) received no further treatment. […] Lung wet-to-dry weight ratio was determined post-mortem. Lung lipid peroxidation was estimated fluorometrically by measuring thiobarbituric acid reactive products in the lipid fraction of lung parenchymal tissue harvested at T=300 min.

Where [4] appears, read: 10 μM salen manganese complex, 10 mM H2O2.
[5] abbreviates: T = 300 min, C7 10 mg/kg bolus at T=60 min then 10 mg/kg-h after LPS.

As to `[Cl][Mn]1[O]c2ccccc2C=NCCN=Cc2ccccc2[O]1` [Compound C7], the “protection, left ventricular diastolic pressure” value with Rats is reported as “protection”. Further, the “catalase activity (in words)” value in series [1] is given as “exhibits catalase activity”. In series [1] (10 μM C7, ~1 mM H2O2), the catalase turnovers completed entry was “no more than a single turnover”. Also, in series [1] (setting [4]), the Catalase rate amounted to 148.6 ± 33.5 μM O2/min and the Endpoint came out at 32.3 ± 1.2 maximal μM O2. In series [1] (relative to C7 (C7 = 100)), this compound had a Catalase endpt. of 100 and a Catalase rate of 100. Besides, the “ABTS oxidation rate with t-BHP, percent of rate with H2O2” value in series [2] (1 mM t-BHP) is given as “about 0.5%”. In series [3], the “peroxidase activity (in words)” value was “exhibits peroxidase activity”, the Peroxidase rate was found to be 20.0 ± 0.5 μM ABTS oxidized/min and the Peroxidase was determined as 100. In series [3] (10 μM C7, 1 mM H2O2, pH 8.1), the ABTS oxidized result is listed as “up to 88 μM” and the peroxidase turnovers result was “over 8 turnovers”. In addition, the “toxicity, adverse health effects” value in the series with dopaminergic neurons (7 day test period) is “absence of adverse health effects”. In addition, the “number of surviving dopaminergic neurons in MPTP-treated mice” value with dopaminergic neurons (C7 33 mg/kg i.p. pretreatment, MPTP 40 mg/kg days 1 and 2) is on record as “approximately doubled”. In addition, the “number of dopaminergic neurons, C7 alone” value with dopaminergic neurons (C7 alone) is “not adversely affected”. In addition, in the series with pigs (setting [5]), the “% Cdyn, dynamic pulmonary compliance” value is recorded as 78 ± 4%; the “MDA, lung malondialdehyde level” value is recorded as 180 ± 27 pmols/mg dry weight; the “PaO2, arterial oxygenation” value is reported as 148 ± 22 mm Hg; the “Ppa, mean pulmonary arterial pressure” value turned out to be 25 ± 3 mm Hg. In the series with pigs (setting [5]), the “W/D, lung wet-to-dry weight ratio” value is 6.4 ± 0.9. Besides, the “protection against effects of endotoxin” value in the series with pigs (administered 60 min after onset of endotoxemia) was “protects against many of the deleterious effects of endotoxin”.

In the case of `COc1cccc2c1[O][Mn]([O]C(C)=O)[O]c1c(cccc1OC)C=NCCN=C2` [Compound C32], the “catalase activity (in words)” value in series [1] was “about twice as fast as C7”. Further, the “turnovers before the catalase reaction ceased” value in series [1] (10 μM complex, 10 mM H2O2) is listed as “about 16 turnovers”. For the same compound, in series [1] (setting [4]), the Catalase rate was found to be 295.0 ± 31.9 μM O2/min and the Endpoint came out at 90.1 ± 2.6 maximal μM O2. For the same compound, in series [1] (relative to C7 (C7 = 100)), the Catalase endpt. was found to be 319 and the Catalase rate stood at 188. Also, the “peroxidase rate with t-BHP relative to C7” value in series [2] is recorded as around 3 fold. Also, in series [3], the “peroxidase activity (in words)” value was “fastest peroxidases”, the Peroxidase rate is listed as 34.2 ± 1.5 μM ABTS oxidized/min and the Peroxidase is 203.

With `COc1cc(OC)c2c(c1)[O][Mn]([O]C(C)=O)[O]c1cc(OC)cc(OC)c1C=NCCN=C2` [Compound C35], the “catalase activity (in words)” value in series [1] is reported as “much lower catalase activity”. In series [1] (setting [4]), this compound displayed a Catalase rate of 36.0 ± 8.0 μM O2/min and an Endpoint of 10.5 ± 3.0 maximal μM O2. Moreover, in series [1] (relative to C7 (C7 = 100)), the Catalase endpt. was 41 and the Catalase rate came to 25. In addition, the “peroxidase activity toward t-BHP, percent of C7” value in series [2] was “less than 2%”. Moreover, in series [3], the “peroxidase activity (in words)” value is recorded as “undetectable activity”, the Peroxidase rate is given as −0.1 ± 0.1 μM ABTS oxidized/min and the Peroxidase is listed as 0.

Consider `COc1cccc2c1[O][Mn]([Cl])[O]c1c(cccc1OC)C=NCCN=C2` [Compound C40], for which the “protection, left ventricular diastolic pressure” value with Rats is listed as “protection”. Moreover, the “catalase activity (in words)” value in series [1] was “higher rate”. Also, in series [1] (relative to C7 (C7 = 100)), the Catalase endpt. is given as 272 and the Catalase rate was 155. Also, in series [3], the “peroxidase activity (in words)” value is reported as “fastest peroxidases”, the Peroxidase rate is recorded as 32.9 ± 0.2 μM ABTS oxidized/min and the Peroxidase is listed as 203. Besides, in the series with dopaminergic neurons (C40 0.02 or 0.2 mg/kg intraperitoneal), the “protection of dopaminergic neurons (3H-Mazindol binding to striatal membranes)” value is recorded as “protects dopaminergic neurons”.
